Source: patent US20250264459A1, “IN VITRO ASSAY TO PREDICT CARDIOTOXICITY” (Stemina Biomarker Discovery, Inc., priority 2018, published 2025)
Like-named read-outs stand apart in the source and are kept apart here.

Experiments:
[1] = system: human iPSC-CM (iCell Cardiomyocytes2); assay: Spent-media metabolomics (LC-MS) cardiotoxicity prediction models, blinded test set; settings: for Global Tox Model Prediction: cardiotoxic vs non-cardiotoxic, at the Exposure (μM) listed per compound in Table 3, model from confirmed metabolites and viability; for Functional Model Prediction: functional vs general/structural cardiotoxicants, at the Exposure (μM) listed per compound in Table 3
[2] = cited from earlier work

| SMILES | Global Tox Model Prediction [1] | Functional Model Prediction [1] | Cmax Total ([2]; therapeutic total Cmax) [µM] | Cmax Total ([2]; in vivo) [µM] |
| --- | --- | --- | --- | --- |
| OC[C@@H](O)[C@H](O)[C@@H](O)CO [Xylitol] | − | − | 0.5 |  |
| CS(=O)(=O)OCCCCOS(C)(=O)=O [Busulfan] | + | − | 50 |  |
| CC[C@H](OC(C)=O)C(C[C@H](C)N(C)C)(c1ccccc1)c1ccccc1 [Levomethadyl Acetate] | + | + |  | 0.6 |
| Cc1cn(-c2cc(NC(=O)c3ccc(C)c(Nc4nccc(-c5cccnc5)n4)c3)cc(C(F)(F)F)c2)cn1 [Nilotinib] | + | − | 3 |  |
| OC[C@H]1O[C@@](CO)(O[C@H]2O[C@H](CO)[C@@H](O)[C@H](O)[C@H]2O)[C@@H](O)[C@@H]1O [Sucrose] | − | − | 1.8 |  |
| CCCc1nn(C)c2c(=O)[nH]c(-c3cc(S(=O)(=O)N4CCN(C)CC4)ccc3OCC)nc12 [Sildenafil] | − | − |  |  |
| CN(CCOc1ccc(CC2SC(=O)NC2=O)cc1)c1ccccn1 (stereo not shown) [Rosiglitazone] |  | − |  |  |
| CCOC(=O)N1CCC(=C2c3ccc(Cl)cc3CCc3cccnc32)CC1 [Loratadine] |  | − |  |  |
| CC(=O)Oc1ccccc1C(=O)O [Acetylsalicylic Acid] | − | − | 10 |  |
| CC(C)COCC(CN(Cc1ccccc1)c1ccccc1)N1CCCC1 (stereo not shown) [Bepridil] | + | + | 3.3 |  |
| CC(C)NCC(O)c1ccc(NS(C)(=O)=O)cc1 (stereo not shown) [Sotalol] | + | + | 15 |  |
